{
  "source": "patent US11419869B2",
  "about": "“Dosage forms and regimens for amino acid compounds” (Pliant Therapeutics, Inc., priority 2019, dated 2022)",
  "key": {"COL1A1 expression [1]": {"system": "COL1A1 expression", "assay": "COL1A1 expression in precision cut lung slices (PCLS) from human IPF lung tissue", "conditions": "FIG. 6E, 200 pM to 1 μM"}, "[2]": {"system": "normal (healthy) human bronchial epithelial cells", "assay": "LAP adhesion binding assay, normal human bronchial epithelial cells", "format": "cell-based", "conditions": "cell index (electrical impedance), FIG. 3A", "protocol": "Two latency associated peptide (LAP) adhesion binding assays were devised using primary human lung cells, including normal (healthy) human bronchial epithelial cells and human lung fibroblasts (healthy and IPF).\nHuman bronchial epithelial cells are known to express αvβ6 integrin in culture. Human bronchial epithelial cells were prepared for the assay by dissociation with trypsin/EDTA and were then seeded at 20,000 cells per well on 96 well plates (ACEA Bioscience E-plate View, Acea Biosciences; San Diego, Calif.) previously coated with 5 μg/ml of recombinant human LAP (R&D Systems; Minneapolis, Minn.) and blocked with 4% bovine serum albumin. Cell index (electrical impedance) was measured to assess cell attachment/spreading every 3 minutes for 24 hours at 37° C./5% CO2 using the xCELLigence RTCA MP Instrument (Acea Biosciences; San Diego, Calif.)."}, "lung Col1a1 expression": {"system": "lung Col1a1 expression", "assay": "Precision cut lung slices, mice under chronic bleomycin exposure (Example B9)", "format": "cell-based", "conditions": "7 days culture, normalized to DMSO, FIG. 5B", "protocol": "Mice (C57BL/6) were administered 3 U/kg of bleomycin (Teva Pharmaceuticals; North Wales, Pa.) on Day 0 and 1 U/kg of bleomycin on days 14, 28, 42 and 56 via oropharyngeal aspiration while under anesthesia. At day 70, 14 days after the final bleomycin insult, precision cut lung slices were obtained. Following euthanization, 2% low gelling temp agarose was injected into the mouse lungs via the trachea. […] The lobes were then subjected to precision slicing to obtain samples for culture using a microtome (Compresstome VF-300-0Z, Precisionary; Greenville, N.C.). Individual slices were distributed in a multiwell culture plate and cultured for 7 days under control (DMSO) and test compound conditions. The viability of the slices over the course of culturing was confirmed by WST-1 assay of mitochondrial activity.\nDuring the culture period, slices in the control group were treated with DMSO and slices in the test group were treated with a DMSO solution of one of: the selective antibody αvβ6 inhibitor 3G9; the αvβ1-selective small molecule inhibitor; a combination of the selective antibody αvβ6 inhibitor 3G9 and the αvβ1-selective small molecule inhibitor; compound 5; and the small molecule ALK5 inhibitor. The selective αvβ1 and αvβ6 integrin inhibitors were analyzed at ≥their respective IC90 concentrations for inhibition of TGF-beta activation. […]"}, "COL1A1 expression [3]": {"system": "COL1A1 expression", "assay": "Precision cut lung slices from human IPF explants, COL1A1 expression (Example B11)", "format": "cell-based", "text": "Explanted lung tissue was obtained from human IPF subjects and inflated with agarose as described in the preceding examples. Biopsy cores were obtained from the agarose-inflated lung tissue. The biopsy cores were subjected to precision slicing to obtain several hundred μm thick. Individual slices were distributed in a multiwell culture plate and cultured for […] under control (DMSO) and test compound conditions. The viability of the slices over the course of culturing was confirmed by WST-1 assay of mitochondrial activity.\nPCLS from 5-7 idopathic pulmonary fibrosis (IPF) lung tissue samples were cultured for seven days with one of: DMSO; Compound 5 at 200 nM; nintedanib at 75 nM; pirfenidone at 50 μm; a combination of Compound 5 at 200 nM and nintedanib at 75 nM; a combination of Compound 5 at 200 nM and pirfenidone at […]; or an Alk5 inhibitor at 1 μm. […] FIG. 6D is a bar graph showing relative expression of COL1A1 in precision cut lung slices (PCLS) from idopathic pulmonary fibrosis (IPF) lung tissue upon exposure to Comopund 5, clinical standard of care compounds nintedanib (Nin) and pirfenidone (Pirf), and an ALK5 inhibitor, all versus DMSO control.\nPCLS from a single IPF lung tissue sample were cultured for seven days with Compound 5 at concentrations of […], 2 nM, 60 nM, 200 nM, and 1 μM, along with 0.1% DMSO control and an Alk5 inhibitor at 1 μM. […] COL1A1 expression is also graphed for the PCLS in the presence of 0.1% DMSO control, and an Alk5 inhibitor at 1 μM."}, "pSMAD2/SMAD2 ratio": {"system": "pSMAD2/SMAD2 ratio", "assay": "Precision cut lung slices from human IPF lung tissue, pSMAD2/SMAD2 ratio", "format": "cell-based", "conditions": "PCLS from 3 IPF lung tissues, seven days, Compound 5 at 1.82 μM, FIG. 6F", "protocol": "PCLS from 3 IPF lung tissues were cultured for seven days with Compound 5. […] The ratio of pSMAD2/SMAD2 is also graphed for the PCLS in the presence of 0.1% DMSO control, and an Alk5 inhibitor at 1 μM"}, "[4]": {"assay": "SAD and MAD first-in-human pharmacokinetic studies (Example B12)", "format": "in vivo", "protocol": "Healthy human subjects (N=85) were selected for single ascending dose (SAD) and multiple ascending dose (MAD) first-in-human studies. A solution for oral administration was prepared, containing 10 mg/mL of compound 5 in a 50:50 mixture of ORA-SWEET® SF (PERRIGO®, Allegan, Mich.) and sterile water for irrigation. Sufficient solution was administered orally to the subjects to provide between 15 mg/dose and 75 mg/dose of compound 5 in the SAD study and between 10 mg/dose and 40 mg/dose of compound 5 in the MAD study. Concentrations of compound 5 were measured in the subjects by obtaining a sample of plasma from each subject at desired intervals, and subjecting the plasma to liquid chromatography-mass spectrometry-mass spectrometry (LC-MS/MS), with quantification using a calibration curve determined from a range of solutions at standardized concentrations. The lower limit of quantitation (LLOQ) of the assay was 1 ng/mL and the calibration curve range was 1 to 500 ng/mL."}, "pSMAD2:SMAD2 ratio": {"system": "pSMAD2:SMAD2 ratio", "assay": "pSMAD2/SMAD2 in BAL from healthy human subjects (Example B13)", "format": "in vivo", "conditions": "Day 7, subjects with Cmax above 700 ng/mL, compared to placebo group, 20 or 40 mg daily", "protocol": "In order to evaluate the change of pSMAD2 as a biomarker of TGF-β activity following administration of an integrin inhibitor, and to determine a therapeutically effective dosage and an effective blood plasma Cmax of the integrin inhibitor, healthy subjects were administered compound 5, a dual selective αvβ6/αvβ1-integrin inhibitor, and the corresponding Cmax levels and decrease in phosphorylation levels and were determined.\nHealthy non-smoking adult males without history of lung disease were selected as subjects and were randomized into 4 cohorts. Broncoalevaolar lavage samples were obtained from all subjects 1 day prior to start of treatment. Cohorts 1 and 2 were administered 20 mg of a compound daily, wherein 3 subjects were administered the dual selective αvβ6/αvβ1-integrin inhibitor (compound 5) per every 1 subject receiving a placebo compound. Cohorts 3 and 4 were administered 40 mg of a compound daily, wherein 3 subjects were administered the dual selective αvβ6/αvβ1-integrin inhibitor (compound 5) per every 1 subject receiving a placebo compound. BAL samples and blood samples were taken from all subjects on Day −1 (baseline) and on Day 7 (end of treatment)."}},
  "data": [
    {"compound": "COCCN(CCCCc1ccc2c(n1)NCCC2)CC[C@H](Nc1ncnc2ccccc12)C(=O)O", "note": "[Compound 5, (S)-4-((2-methoxyethyl) (4-(5,6,7,8-tetrahydro-1,8-naphthyridin-2-yl)butyl)amino)-2-(quinazolin-4-ylamino) butanoic acid]", "values": [
      {"measurement": "COL1A1 expression", "setting": "COL1A1 expression [1]", "result": "dose dependent reduction"},
      {"measurement": "normal bronchial epithelial cell adhesion to LAP", "setting": "[2]", "result": "substantially inhibited"},
      {"measurement": "lung Col1a1 expression", "setting": "lung Col1a1 expression", "result": "decreased lung Col1a1 expression substantially"},
      {"measurement": "COL1A1 expression, dose dependence", "setting": "COL1A1 expression [3]; PCLS from a single IPF lung sample, seven days, 200 pM to 1 μM, FIG. 6E", "result": "dose dependent reduction"},
      {"measurement": "reduction in COL1A1 expression", "setting": "COL1A1 expression [3]; PCLS from a single IPF lung sample, seven days, at ≥2 nM, FIG. 6E", "result": "≥ 47", "unit": "% reduction"},
      {"measurement": "lung Col1a1 expression", "setting": "COL1A1 expression [3]; human IPF slices, 3 days, 3G9 ≥400 ng/mL, compound 5 179 nM, ALK5 inhibitor 1 μM, FIG. 6C", "result": "substantial, statistically significant (p<0.01 vs vehicle) decrease"},
      {"measurement": "reduction of pSMAD2/SMAD2 ratio", "setting": "pSMAD2/SMAD2 ratio", "result": "approximately 50%"},
      {"measurement": "oral bioavailability and pharmacokinetics", "setting": "[4]; healthy subjects", "result": "good oral bioavailability and pharmacokinetics"},
      {"measurement": "half-life", "setting": "[4]; plasma, healthy human subjects, oral solution, SAD 15-75 mg, MAD 10-40 mg, read-out: calculated half life", "result": "18 to 20", "unit": "h"},
      {"measurement": "reduction in pSMAD2:SMAD2 ratio", "setting": "pSMAD2:SMAD2 ratio", "result": "≥ 50", "unit": "%"}
    ]}
  ]
}
